Where a name gives a salt, the structure may show the parent alone.

Consider 41 compounds from US9758505B2, “3-(indol-3-yl)-pyridine derivatives, pharmaceutical compositions and methods for use” (ITEOS THERAPEUTICS, priority 2014, dated 2017).

Chain of human TDO2 (P48775 whole entry): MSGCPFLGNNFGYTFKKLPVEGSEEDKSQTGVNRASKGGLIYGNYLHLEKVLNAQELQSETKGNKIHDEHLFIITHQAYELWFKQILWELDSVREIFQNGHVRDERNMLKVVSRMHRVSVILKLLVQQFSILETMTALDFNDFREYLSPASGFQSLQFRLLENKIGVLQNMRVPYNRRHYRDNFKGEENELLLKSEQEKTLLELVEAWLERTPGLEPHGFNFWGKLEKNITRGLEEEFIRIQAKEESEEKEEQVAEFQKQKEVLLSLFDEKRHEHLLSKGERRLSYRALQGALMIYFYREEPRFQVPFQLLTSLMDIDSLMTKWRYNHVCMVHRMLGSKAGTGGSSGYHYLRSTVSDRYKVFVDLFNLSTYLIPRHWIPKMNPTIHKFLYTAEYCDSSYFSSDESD

The assay concerns the target human TDO2 (Homo sapiens (Human), UniProt P48775). Description: Cellular assay for TDO2 activity, A172 cells naturally expressing hTDO2. To be noted: human glioblastoma A172 cells, overnight incubation, kynurenine in supernatant. It counts as cell-based. As to the method: A172 is a cell line derived from human brain glioblastoma cells.
To determine TDO, the cells were incubated overnight at 37° C. at 5% CO2 in IMDM (Invitrogen) supplemented with 2% FBS and 2% penicillin/streptomycin in the presence of the compounds of the present invention, at different concentrations.
The plates were then centrifuged 5 min at 1000 rpm, and 100 μL of the supernatant were collected in a conical plate, 30 uL of TCA 30% were added and a further centrifugated at 3000×g for 10 minutes. 100 μL of the supernatant were collected in a flat bottomed plate and 100 μL of 2% (w/v) 4-(dimethylamino)-benzaldehyde in acetic acid and incubated for 5 min at room temperature. Kynurenine concentrations were determined by measuring the absorbance at 480 nm. A standard curve was made with pure kynurenine. The TDO activity was measured as described above using ten serial concentrations of the compounds of the present invention. Data were fitted using the Prism™ software (GraphPad Software, Inc.) using standard software configurations.
As for `N[C@@H](Cc1ccccc1)C(=O)Nc1ccc(-c2c[nH]c3cc(F)ccc23)cn1` [Example 36, (S)-2-amino-N-(5-(6-fluoro-1H-indol-3-yl)pyridin-2-yl)-3-phenylpropanamide], the midpoint of inhibition, the IC50, lay at 1100 nM. This counts as single-digit micromolar.

`CC(C)[C@H](N)C(=O)Nc1ccc(-c2c[nH]c3cc(F)ccc23)cn1` [Example 38, (S)-2-amino-N-(5-(6-fluoro-1H-indol-3-yl)pyridin-2-yl)-3-methylbutanamide]: half-maximal inhibition (IC50) required 740 nM.

As for `CC(=O)N1CCC(C(=O)Nc2ccc(-c3c[nH]c4cc(F)ccc34)cn2)CC1` [Example 42, 1-acetyl-N-(5-(6-fluoro-1H-indol-3-yl)pyridin-2-yl)piperidine-4-carboxamide], 520 nM corresponded to half-maximal inhibition (IC50).

With `COCCS(=O)(=O)NC1CCN(c2ccc(-c3c[nH]c4cc(F)ccc34)cn2)CC1` [Example 57, N-(1-(5-(6-fluoro-1H-indol-3-yl)pyridin-2-yl)piperidin-4-yl)-2-methoxyethanesulfonamide], half-maximal inhibition (IC50) required 1400 nM.

Turning to `O=C(Nc1ccc(-c2c[nH]c3cc(F)ccc23)cn1)[C@@H]1CCCN1` [Example 58, (S)—N-(5-(6-fluoro-1H-indol-3-yl)pyridin-2-yl)pyrrolidine-2-carboxamide], half-maximal inhibition (IC50) was put at 810 nM.

Regarding `O=S(=O)(CCN1CCOCC1)NC1CCN(c2ccc(-c3c[nH]c4cc(F)ccc34)cn2)CC1` [Example 59, N-(1-(5-(6-fluoro-1H-indol-3-yl)pyridin-2-yl)piperidin-4-yl)-2-morpholinoethanesulfonamide], the half-inhibitory concentration (IC50) (commonly the concentration needed to halve the response being measured) came out at 1400 nM.

As to `CS(=O)(=O)Nc1ccc(-c2c[nH]c3cc(F)ccc23)cn1` [Example 60, N-(5-(6-fluoro-1H-indol-3-yl)pyridin-2-yl)methanesulfonamide], 700 nM corresponded to half-maximal inhibition (IC50).

Consider `O=S(=O)(CCO)NC1CCN(c2ccc(-c3c[nH]c4cc(F)ccc34)cn2)CC1` [Example 62, N-(1-(5-(6-fluoro-1H-indol-3-yl)pyridin-2-yl)piperidin-4-yl)-2-hydroxyethanesulfonamide], for which half-maximal inhibition (IC50) was put at 1300 nM.

With `NC(=O)Nc1ccc(-c2c[nH]c3cc(F)ccc23)cn1` [Example 63, 1-(5-(6-fluoro-1H-indol-3-yl)pyridin-2-yl)urea], the half-inhibitory concentration (IC50) was found to be 360 nM.

For `CS(=O)(=O)NCCC(=O)Nc1ccc(-c2c[nH]c3cc(F)ccc23)cn1` [Example 64, N-(5-(6-fluoro-1H-indol-3-yl)pyridin-2-yl)-3-(methylsulfonamido)propanamide], the midpoint of inhibition, the IC50, lay at 870 nM.

Compound `CN(C)C(=O)Nc1ccc(-c2c[nH]c3cc(F)ccc23)cn1` [Example 65, 3-(5-(6-fluoro-1H-indol-3-yl)pyridin-2-yl)-1,1-dimethylurea] displayed an IC50 of 820 nM.

For `CNC(=O)Nc1ccc(-c2c[nH]c3cc(F)ccc23)cn1` [Example 66, 1-(5-(6-fluoro-1H-indol-3-yl)pyridin-2-yl)-3-methylurea], the IC50 stood at 440 nM.

Compound `Nc1nc2ccc(-c3ccc(-c4c[nH]c5cc(F)ccc45)cn3)cc2[nH]1` [Example 67, 6-(5-(6-fluoro-1H-indol-3-yl)pyridin-2-yl)-1H-benzo[d]imidazol-2-amine] yielded a half-maximal inhibitory concentration (IC50) of 460 nM.

As to `Cn1cc(-c2c[nH]c3cc(F)ccc23)ccc1=O` [Example 68, 5-(6-fluoro-1H-indol-3-yl)-1-methylpyridin-2(1H)-one], 480 nM corresponded to half-maximal inhibition (IC50).

Turning to `CS(=O)(=O)NCCCC(=O)Nc1ccc(-c2c[nH]c3cc(F)ccc23)cn1` [Example 70, N-(5-(6-fluoro-1H-indol-3-yl)pyridin-2-yl)-4-(methylsulfonamido)butanamide], the IC50 came to 720 nM.

`O=c1[nH]c2ncc(-c3c[nH]c4cc(F)ccc34)cc2o1` [Example 71, 6-(6-fluoro-1H-indol-3-yl)oxazolo[4,5-b]pyridin-2(3H)-one] registered an IC50 of 1400 nM.

In turn, `CS(=O)(=O)NC1CCN(c2ccc(-c3c[nH]c4cc(Cl)ccc34)cn2)CC1` [Example 72, N-(1-(5-(6-chloro-1H-indol-3-yl)pyridin-2-yl)piperidin-4-yl)methanesulfonamide] came in with an IC50 of 4700 nM.

`O=c1[nH]c2cc(-c3c[nH]c4cc(F)ccc34)cnc2[nH]1` [Example 73, 6-(6-fluoro-1H-indol-3-yl)-1H-imidazo[4,5-b]pyridin-2(3H)-one]: inhibition was half-maximal at 600 nM (IC50).

`Cc1nc2ncc(-c3c[nH]c4cc(F)ccc34)cc2o1` [Example 74, 6-(6-fluoro-1H-indol-3-yl)-2-methyloxazolo[4,5-b]pyridine] gave an IC50 of 400 nM.

On to `Cc1nc2cc(-c3c[nH]c4cc(F)ccc34)cnc2o1` [Example 75, 6-(6-fluoro-1H-indol-3-yl)-2-methyloxazolo[5,4-b]pyridine], for which the IC50 turned out to be 500 nM.

In turn, `O=C1Cc2ncc(-c3c[nH]c4cc(F)ccc34)cc2N1` [Example 76, 6-(6-fluoro-1H-indol-3-yl)-1H-pyrrolo[3,2-b]pyridin-2(3H)-one] yielded an IC50 of 4100 nM. This IC50 lies about 8.2-fold higher than the previous one.

In turn, `CS(=O)(=O)NC1CCN(c2ccc(-c3c[nH]c4ccc(Cl)cc34)cn2)CC1` [Example 77, N-(1-(5-(5-chloro-1H-indol-3-yl)pyridin-2-yl)piperidin-4-yl)methanesulfonamide] displayed an IC50 of 2800 nM.

In turn, `CS(=O)(=O)NC1CCN(c2ccc(-c3c[nH]c4ccccc34)cn2)CC1` [Example 79, N-(1-(5-(1H-indol-3-yl)pyridin-2-yl)piperidin-4-yl)methanesulfonamide] displayed an IC50 of 1200 nM.

`NS(=O)(=O)c1ccc(-c2c[nH]c3cc(F)ccc23)cn1` [Example 80, 5-(6-fluoro-1H-indol-3-yl)pyridine-2-sulfonamide hydrochloride]: the IC50 was 310 nM.

`CS(=O)(=O)NC1CCN(c2ccc(-c3c[nH]c4ccc(F)cc34)cn2)CC1` [Example 81, N-(1-(5-(5-fluoro-1H-indol-3-yl)pyridin-2-yl)piperidin-4-yl)methanesulfonamide] gave an IC50 of 2000 nM.

For the compound `O=C1COCCN1c1ccc(-c2c[nH]c3cc(F)ccc23)cn1` [Example 82, 4-(5-(6-fluoro-1H-indol-3-yl)pyridin-2-yl)morpholin-3-one], the IC50 was 590 nM.

In turn, `O=C1CNCCN1c1ccc(-c2c[nH]c3cc(F)ccc23)cn1` [Example 83, 1-(5-(6-fluoro-1H-indol-3-yl)pyridin-2-yl)piperazin-2-one] came in with an IC50 of 1500 nM.

`O=C(O)Cn1c(=O)[nH]c2cc(-c3c[nH]c4cc(F)ccc34)cnc21` [Example 85, 2-(6-(6-fluoro-1H-indol-3-yl)-2-oxo-1H-imidazo[4,5-b]pyridin-3(2H)-yl)acetic acid] yielded an IC50 of 2300 nM. This IC50 is about 1.5-fold higher than that of the compound before.

Turning to `CCOC(=O)Cn1c(=O)[nH]c2cc(-c3c[nH]c4cc(F)ccc34)cnc21` [Example 86, ethyl 2-(6-(6-fluoro-1H-indol-3-yl)-2-oxo-1H-imidazo[4,5-b]pyridin-3(2H)-yl)acetate], half-maximal inhibition (IC50) was put at 610 nM.

In the case of `O=S(=O)(c1ccc(-c2c[nH]c3cc(F)ccc23)cn1)N1CCNCC1` [Example 87, 6-fluoro-3-(6-(piperazin-1-ylsulfonyl)pyridin-3-yl)-1H-indole], the IC50 is 230 nM.

In turn, `CS(=O)(=O)NCCNS(=O)(=O)c1ccc(-c2c[nH]c3cc(F)ccc23)cn1` [Example 88, 5-(6-fluoro-1H-indol-3-yl)-N-(2-(methylsulfonamido)ethyl)pyridine-2-sulfonamide] yielded an IC50 of 350 nM.

In turn, `CN(CCNS(=O)(=O)c1ccc(-c2c[nH]c3cc(F)ccc23)cn1)S(C)(=O)=O` [Example 89, 5-(6-fluoro-1H-indol-3-yl)-N-(2-(N-methylmethylsulfonamido)ethyl)pyridine-2-sulfonamide] gave an IC50 of 350 nM.

With `CS(=O)(=O)N1CCN(S(=O)(=O)c2ccc(-c3c[nH]c4cc(F)ccc34)cn2)CC1` [Example 90, 6-fluoro-3-(6-((4-(methylsulfonyl)piperazin-1-yl)sulfonyl)pyridin-3-yl)-1H-indole], the half-maximal inhibitory concentration (IC50) was 1400 nM.

Regarding `CN(CCNS(C)(=O)=O)S(=O)(=O)c1ccc(-c2c[nH]c3cc(F)ccc23)cn1` [Example 91, 5-(6-fluoro-1H-indol-3-yl)-N-methyl-N-(2-(methylsulfonamido)ethyl)pyridine-2-sulfonamide], inhibition was half-maximal at 270 nM (IC50).

The compound `CC(=O)NCCNS(=O)(=O)c1ccc(-c2c[nH]c3cc(F)ccc23)cn1` [Example 92, N-(2-(5-(6-fluoro-1H-indol-3-yl)pyridine-2-sulfonamido)ethyl)acetamide] had an IC50 of 330 nM.

Take `O=S(=O)(c1ccc(-c2c[nH]c3ccccc23)cn1)N1CCNCC1` [Example 93, 3-(6-(piperazin-1-ylsulfonyl)pyridin-3-yl)-1H-indole]: half-maximal inhibition (IC50) was put at 200 nM. This IC50 lies about 1.6-fold lower than the previous one.

In the case of `O=S(=O)(c1ccc(-c2c[nH]c3cc(F)c(F)cc23)cn1)N1CCNCC1` [Example 94, 5,6-difluoro-3-(6-(piperazin-1-ylsulfonyl)pyridin-3-yl)-1H-indole], inhibition was half-maximal at 240 nM (IC50).

As to `O=S(=O)(c1ccc(-c2c[nH]c3ccc(F)cc23)cn1)N1CCNCC1` [Example 95, 5-fluoro-3-(6-(piperazin-1-ylsulfonyl)pyridin-3-yl)-1H-indole], half-maximal inhibition (IC50) was put at 370 nM.

In the case of `Cc1ccc2[nH]cc(-c3ccc(S(=O)(=O)N4CCNCC4)nc3)c2c1` [Example 96, 5-methyl-3-(6-(piperazin-1-ylsulfonyl)pyridin-3-yl)-1H-indole], the IC50 came to 530 nM.

`N#Cc1ccc2[nH]cc(-c3ccc(S(=O)(=O)N4CCNCC4)nc3)c2c1` [Example 97, 3-(6-(piperazin-1-ylsulfonyl)pyridin-3-yl)-1H-indole-5-carbonitrile] had an IC50 of 2400 nM. Compared with the last compound, the IC50 is about 4.5-fold higher.

The compound `Cc1ccc2c(-c3ccc(S(=O)(=O)N4CCNCC4)nc3)c[nH]c2c1` [Example 98, 6-methyl-3-(6-(piperazin-1-ylsulfonyl)pyridin-3-yl)-1H-indole] registered an IC50 of 1400 nM.
